Test results taken from ChEMBL document CHEMBL4842355, “Improved potency of pyridin-2(1H)one derivatives for the treatment of mechanical allodynia” (Eur J Med Chem, 2021).

Legend:
Rattus norvegicus = assay: Anti-allodynic activity in complete freund's adjuvant-induced rat inflammatory pain model assessed as inhibition of inflammatory mechanical allodynia at 10 uM, ic administered 30 min before CFA injection and measured after 120 mins by Von Frey filament assay relative to control; assay type: functional; settings: 2.5 h, time 150 min
[1] = target: T1, Mitogen-activated protein kinase 14 (Homo sapiens, UniProt Q16539); assay: Inhibition of p38 alpha (unknown origin) assessed as residual activity at 1 uM relative to control
T1 sequence (Q16539 whole entry): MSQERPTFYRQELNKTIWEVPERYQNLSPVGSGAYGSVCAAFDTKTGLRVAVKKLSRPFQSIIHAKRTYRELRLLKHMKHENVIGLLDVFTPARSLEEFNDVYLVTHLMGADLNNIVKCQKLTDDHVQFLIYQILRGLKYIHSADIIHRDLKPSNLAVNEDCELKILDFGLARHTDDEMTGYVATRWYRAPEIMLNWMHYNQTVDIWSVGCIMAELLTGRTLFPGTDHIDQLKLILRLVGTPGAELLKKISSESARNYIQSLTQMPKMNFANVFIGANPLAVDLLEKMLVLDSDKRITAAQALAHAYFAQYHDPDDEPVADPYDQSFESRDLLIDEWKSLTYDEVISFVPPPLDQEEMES

[2] = target: T1, Mitogen-activated protein kinase 14; assay: Inhibition of p38 alpha (unknown origin)
[3] = target: T1, Mitogen-activated protein kinase 14; assay: Inhibition of p38 alpha (unknown origin) at 1 uM relative to control

Row | SMILES | Activity [1] [%] | IC50 [2] [nM] | inhibition [3] [%] | inhibition in vivo at 10 µM (Rattus norvegicus) [%]
1 | O=c1[nH]cc(Nc2ccccn2)cc1-c1cccc2[nH]ccc12 | 70 | – | – | > 80
2 | COc1cccc(Nc2c[nH]c(=O)c(-c3cccc4[nH]ccc34)c2)c1 | 50 | – | – | > 80
3 | O=c1[nH]cc(Nc2cccc([N+](=O)[O-])c2)cc1-c1cccc2[nH]ccc12 | 73.9 | – | – | –
4 | O=c1[nH]cc(Nc2ccc(Br)cc2)cc1-c1cccc2[nH]ccc12 | 43 | 2400 | – | –
5 | O=c1[nH]cc(Nc2cccnc2)cc1-c1cccc2[nH]ccc12 | 64 | – | – | –
6 | O=c1[nH]cc(Nc2ccc([N+](=O)[O-])cc2)cc1-c1cccc2[nH]ccc12 | 93 | – | – | 98
7 | CCOC(=O)c1ccccc1Nc1c[nH]c(=O)c(-c2cccc3[nH]ccc23)c1 | 104 | – | – | –
8 | O=c1[nH]cc(Nc2ccccc2)cc1-c1cccc2[nH]ccc12 | 59 | – | – | –
9 | O=c1[nH]cc(Nc2ccccc2Br)cc1-c1cccc2[nH]ccc12 | 45 | – | – | –
10 | O=c1[nH]cc(Nc2cccc(F)c2)cc1-c1cccc2[nH]ccc12 | 47 | 1400 | – | > 80
11 | O=c1[nH]cc(Nc2cccc(Br)c2)cc1-c1cccc2[nH]ccc12 | 31 | 700 | – | –
12 | CCOC(=O)c1ccc(Nc2c[nH]c(=O)c(-c3cccc4[nH]ccc34)c2)cc1 | 86 | – | – | –
13 | O=c1[nH]cc(Nc2ccncc2)cc1-c1cccc2[nH]ccc12 | 67 | – | 33 | 100
14 | O=c1[nH]cc(Nc2ccccc2F)cc1-c1cccc2[nH]ccc12 | 28 | – | 72 | –
15 | O=c1[nH]cc(Nc2ccc(F)cc2)cc1-c1cccc2[nH]ccc12 | 39 | 400 | – | > 80

Now from value to molecule, other results behind:

Row | Activity [1] [%] | IC50 [2] [nM] | inhibition [3] [%] | SMILES | inhibition in vivo at 10 µM (Rattus norvegicus) [%]
16 | 50 | – | – | COc1ccccc1Nc1c[nH]c(=O)c(-c2cccc3[nH]ccc23)c1 | > 80
17 | 81 | – | – | CCOC(=O)c1cccc(Nc2c[nH]c(=O)c(-c3cccc4[nH]ccc34)c2)c1 | > 80
18 | 59 | – | 41 | O=c1[nH]cc(Nc2ccccc2)cc1-c1ccccc1Br | 65
19 | 34 | 1000 | – | O=c1[nH]cc(Nc2cccc(O)c2)cc1-c1cccc2[nH]ccc12 | –
20 | 59 | – | – | COc1ccc(Nc2c[nH]c(=O)c(-c3cccc4[nH]ccc34)c2)cc1 | 16
21 | 92.3 | – | – | O=c1[nH]cc(Nc2ccccc2[N+](=O)[O-])cc1-c1cccc2[nH]ccc12 | > 80
22 | 33 | 1100 | – | Cc1ccccc1Nc1c[nH]c(=O)c(-c2cccc3[nH]ccc23)c1 | > 80
